Test results from patent publication US12281122B1, “PI3K inhibitors” (Cogent Biosciences, Inc., priority 2023, dated 2025).

Columns and labels:
[1] = tested on: T47D (PI3Kα-H1047R) cell line; assay: HTRF phospho-AKT(S473) cell assay in T47D cells; format: cell-based, human; details: Homo sapiens, 2 hours compound incubation
Summary of the method: (§1)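 T47D: RPMI + 10% FBS + 0.2 units/mL insulin, top 5 μM. SKBR3: McCoy's 5A + 10% FBS, top 10 μM, 70 ng/ml PDGF-BB last 15 min. Both: 12-pt 1:3, 2 h, 37° C, max 0.5% DMSO; HTRF pAKT(S473); IC50.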

[2] = tested on: SKBR3 (PI3Kα-Wild Type) cell line; assay: HTRF phospho-AKT(S473) cell assay in SKBR3 cells; format: cell-based, human; details: Homo sapiens, SK-BR-3, 2 hours compound incubation, PDGF-BB stimulated
Summary of the method: as §1

[3] = T47D (PI3Kα-H1047R) cells, HTRF phospho-AKT(S473)
[4] = SKBR3 (PI3Kα-Wild Type) cells, HTRF phospho-AKT(S473)
[5] = HTRF phospho-AKT(S473), T47D (PI3Kα-H1047R) cells
[6] = HTRF phospho-AKT(S473), SKBR3 (PI3Kα-Wild Type) cells

Row | SMILES | IC50 [1, 3] [nM] | IC50 [2, 4] [nM] | IC50 [1, 5] [nM] | IC50 [2, 6] [nM] | further results
1 | Cc1cc([C@@H](C)Nc2ccc(Cl)nc2C(=O)NS(C)(=O)=O)c2nc(N3Cc4cccc(-c5cnn(C)c5)c4C3)n(C)c(=O)c2c1 [Compound 273, (R)-6-chloro-3-((1-(3,6-dimethyl-2-(4-(1-methyl-1H-pyrazol-4-yl)isoindolin-2-yl)-4-oxo-3,4-dihydroquinazolin-8-yl)ethyl)amino)-N-(methylsulfonyl) picolinamide] | < 250 | ≥ 5000 | – | – | –
2 | Cc1cc([C@@H](C)Nc2ccc(Cl)nc2C(=O)NS(=O)(=O)NC2CC2)c2nc(N3Cc4ccc(F)cc4C3)n(C)c(=O)c2c1 [Compound 152, (R)-6-chloro-N-(N-cyclopropylsulfamoyl)-3-((1-(2-(5-fluoroisoindolin-2-yl)-3,6-dimethyl-4-oxo-3,4-dihydroquinazolin-8-yl)ethyl)amino)picolinamide] | 250 to 500 | ≥ 5000 | – | – | –
3 | Cc1cc([C@@H](C)Nc2ccc(Cl)nc2C(=O)NS(C)(=O)=O)c2nc(N3CCC(c4cnn(C(C)C)n4)CC3)n(C)c(=O)c2c1 [Compound 744, (R)-6-chloro-3-((1-(2-(4-(2-isopropyl-2H-1,2,3-triazol-4-yl)piperidin-1-yl)-3,6-dimethyl-4-oxo-3,4-dihydroquinazolin-8-yl)ethyl)amino)-N-(methylsulfonyl) picolinamide] | – | – | 250 to 500 | ≥ 5000 | –
4 | Cc1cc([C@@H](C)Nc2ccc(Cl)nc2C(=O)NS(C)(=O)=O)c2nc(N3CCC(n4cc5ccccc5n4)CC3)n(C)c(=O)c2c1 [Compound 198, (R)-3-((1-(2-(4-(2H-indazol-2-yl)piperidin-1-yl)-3,6-dimethyl-4-oxo-3,4-dihydroquinazolin-8-yl)ethyl)amino)-6-chloro-N-(methylsulfonyl) picolinamide] | < 250 | 1000 to 5000 | – | – | –
5 | COc1ccc(C2CCN(c3nc4c([C@@H](C)Nc5ccc(Cl)nc5C(=O)NS(C)(=O)=O)cc(C)cc4c(=O)n3C)CC2)cn1 [Compound 700, (R)-6-chloro-3-((1-(2-(4-(6-methoxypyridin-3-yl)piperidin-1-yl)-3,6-dimethyl-4-oxo-3,4-dihydroquinazolin-8-yl)ethyl)amino)-N-(methylsulfonyl) picolinamide] | – | – | 250 to 500 | ≥ 5000 | –
6 | Cc1cc([C@@H](C)Nc2ccc(Cl)nc2C(=O)NS(C)(=O)=O)c2nc(N3[C@@H]4CC[C@H]3C[C@H](n3ncc5ccccc53)C4)n(C)c(=O)c2c1 [Compound 695, 3-(((R)-1-(2-((1R,3S,5S)-3-(1H-indazol-1-yl)-8-azabicyclo[3.2.1]octan-8-yl)-3,6-dimethyl-4-oxo-3,4-dihydroquinazolin-8-yl)ethyl)amino)-6-chloro-N-(methylsulfonyl) picolinamide] | – | – | 250 to 500 | ≥ 5000 | –
7 | COc1cccc(N2CCN(c3nc4c([C@@H](C)Nc5ccc(Cl)nc5C(=O)NS(C)(=O)=O)cc(C)cc4c(=O)n3C)CC2)n1 [Compound 596, (R)-6-chloro-3-((1-(2-(4-(6-methoxypyridin-2-yl)piperazin-1-yl)-3,6-dimethyl-4-oxo-3,4-dihydroquinazolin-8-yl)ethyl)amino)-N-(methylsulfonyl) picolinamide] | – | – | 250 to 500 | ≥ 5000 | –
8 | COc1nc2cc(-c3nc4c([C@@H](C)Nc5ccc(Cl)nc5C(=O)NS(C)(=O)=O)cc(C)cc4c(=O)n3C)ccc2n1C [Compound 849, (R)-6-chloro-3-((1-(2-(2-methoxy-1-methyl-1H-benzo[d]imidazol-5-yl)-3,6-dimethyl-4-oxo-3,4-dihydroquinazolin-8-yl)ethyl)amino)-N-(methylsulfonyl) picolinamide] | – | – | – | – | IC50 ([1]; T47D (PI3Kα-H1047R) cell line, phospho-AKT(S473) HTRF): 250 to 500 nM; IC50 ([2]; SKBR3 (PI3Kα-Wild Type) cell line, phospho-AKT(S473) HTRF): ≥ 5000 nM
9 | Cc1cc([C@@H](C)Nc2ccc(Cl)nc2C(=O)NS(C)(=O)=O)c2nc(N3CCN(c4ccnc(C(F)F)n4)CC3)n(C)c(=O)c2c1 [Compound 649, (R)-6-chloro-3-((1-(2-(4-(2-(difluoromethyl)pyrimidin-4-yl)piperazin-1-yl)-3,6-dimethyl-4-oxo-3,4-dihydroquinazolin-8-yl)ethyl)amino)-N-(methylsulfonyl) picolinamide] | – | – | < 250 | 1000 to 5000 | –

Continued, in another order:

Row | IC50 [1, 3] [nM] | IC50 [2, 4] [nM] | IC50 [1, 5] [nM] | IC50 [2, 6] [nM] | SMILES | further results
10 | – | – | 250 to 500 | ≥ 5000 | Cc1cc([C@@H](C)Nc2ccc(Cl)nc2C(=O)NS(C)(=O)=O)c2nc(N3CCC[C@@H](c4cnc(C)cn4)C3)n(C)c(=O)c2c1 (relative stereo) [Compound 586, 6-chloro-3-(((R)-1-(3,6-dimethyl-2-((R*)-3-(5-methylpyrazin-2-yl)piperidin-1-yl)-4-oxo-3,4-dihydroquinazolin-8-yl)ethyl)amino)-N-(methylsulfonyl) picolinamide] | –
11 | – | – | 250 to 500 | 1000 to 5000 | Cc1cc([C@@H](C)Nc2ccc(Cl)nc2C(=O)NS(C)(=O)=O)c2nc(N3CCn4nccc4C3)n(C)c(=O)c2c1 [Compound 765, (R)-6-chloro-3-((1-(2-(6,7-dihydropyrazolo[1,5-a]pyrazin-5(4H)-yl)-3,6-dimethyl-4-oxo-3,4-dihydroquinazolin-8-yl)ethyl)amino)-N-(methylsulfonyl) picolinamide] | –
12 | 250 to 500 | 1000 to 5000 | – | – | C[C@@H](Nc1ccc(Cl)nc1C(=O)NS(C)(=O)=O)c1cc(F)cc2c(=O)n(C)c(N3C[C@@H]4[C@H](C3)[C@H]4c3ccn(C)n3)nc12 [Compound 373, 6-chloro-3-(((R)-1-(6-fluoro-3-methyl-2-((1R,5S,6R)-6-(1-methyl-1H-pyrazol-3-yl)-3-azabicyclo[3.1.0]hexan-3-yl)-4-oxo-3,4-dihydroquinazolin-8-yl)ethyl)amino)-N-(methylsulfonyl) picolinamide] | –
13 | < 250 | 1000 to 5000 | – | – | Cc1cc([C@@H](C)Nc2ccc(Cl)nc2C(=O)NS(C)(=O)=O)c2nc(N3CCC[C@H](c4cc[nH]n4)C3)n(C)c(=O)c2c1 (relative stereo) [Compound 213, 3-(((R)-1-(2-((R*)-3-(1H-pyrazol-3-yl)piperidin-1-yl)-3,6-dimethyl-4-oxo-3,4-dihydroquinazolin-8-yl)ethyl)amino)-6-chloro-N-(methylsulfonyl) picolinamide] | –
14 | – | – | < 250 | ≥ 5000 | C[C@@H](Nc1ccc(Cl)nc1C(=O)NS(C)(=O)=O)c1cc(C(F)(F)F)cc2c(=O)n(C)c(N3CCC(c4nn(C)cc4F)CC3)nc12 [Compound 453, (R)-6-chloro-3-((1-(2-(4-(4-fluoro-1-methyl-1H-pyrazol-3-yl)piperidin-1-yl)-3-methyl-4-oxo-6-(trifluoromethyl)-3,4-dihydroquinazolin-8-yl)ethyl)amino)-N-(methylsulfonyl) picolinamide] | –
15 | – | – | 250 to 500 | 1000 to 5000 | Cc1cc([C@@H](C)Nc2ccc(Cl)nc2C(=O)NS(C)(=O)=O)c2nc(N3Cc4cncnc4C3)n(C)c(=O)c2c1 [Compound 517, (R)-6-chloro-3-((1-(2-(5,7-dihydro-6H-pyrrolo [3,4-d]pyrimidin-6-yl)-3,6-dimethyl-4-oxo-3,4-dihydroquinazolin-8-yl)ethyl)amino)-N-(methylsulfonyl) picolinamide] | –
16 | – | – | 250 to 500 | 1000 to 5000 | Cc1cnc([C@H]2[C@@H]3CN(c4nc5c([C@@H](C)Nc6ccc(Cl)nc6C(=O)NS(C)(=O)=O)cc(C)cc5c(=O)n4C)C[C@@H]32)nc1 [Compound 502, 6-chloro-3-(((R)-1-(3,6-dimethyl-2-((1R,5S,6R)-6-(5-methylpyrimidin-2-yl)-3-azabicyclo[3.1.0]hexan-3-yl)-4-oxo-3,4-dihydroquinazolin-8-yl)ethyl)amino)-N-(methylsulfonyl) picolinamide] | –
17 | < 250 | 1000 to 5000 | – | – | C[C@@H](Nc1ccc(Cl)nc1C(=O)NS(C)(=O)=O)c1cc(F)cc2c(=O)n(C)c(N3CCC(c4ccn(C)n4)CC3)nc12 [Compound 366, (R)-6-chloro-3-((1-(6-fluoro-3-methyl-2-(4-(1-methyl-1H-pyrazol-3-yl)piperidin-1-yl)-4-oxo-3,4-dihydroquinazolin-8-yl)ethyl)amino)-N-(methylsulfonyl) picolinamide] | –
18 | – | – | 250 to 500 | ≥ 5000 | Cc1cc([C@@H](C)Nc2ccc(Cl)nc2C(=O)NS(C)(=O)=O)c2nc(N3CC[C@H](N(C)c4ncc(Cl)cn4)C3)n(C)c(=O)c2c1 [Compound 740, 6-chloro-3-(((R)-1-(2-((S)-3-((5-chloropyrimidin-2-yl)(methyl)amino)pyrrolidin-1-yl)-3,6-dimethyl-4-oxo-3,4-dihydroquinazolin-8-yl)ethyl)amino)-N-(methylsulfonyl) picolinamide] | –
19 | – | – | < 250 | 1000 to 5000 | Cc1cc([C@@H](C)Nc2ccc(Cl)nc2C(=O)NS(C)(=O)=O)c2nc(N3CC[C@H](c4ccnc(C)c4)C3)n(C)c(=O)c2c1 (relative stereo) [Compound 769, 6-chloro-3-(((R)-1-(3,6-dimethyl-2-((R*)-3-(2-methylpyridin-4-yl)pyrrolidin-1-yl)-4-oxo-3,4-dihydroquinazolin-8-yl)ethyl)amino)-N-(methylsulfonyl) picolinamide] | –
20 | < 250 | 1000 to 5000 | – | – | Cc1cc([C@@H](C)Nc2ccc(Cl)nc2C(=O)NS(C)(=O)=O)c2nc(N3CCC(c4cc(C)n(C)n4)CC3)n(C)c(=O)c2c1 [Compound 287, (R)-6-chloro-3-((1-(2-(4-(1,5-dimethyl-1H-pyrazol-3-yl)piperidin-1-yl)-3,6-dimethyl-4-oxo-3,4-dihydroquinazolin-8-yl)ethyl)amino)-N-(methylsulfonyl) picolinamide] | –
